Assay results: patent US12226399B2, “Oral aqueous suspension formulation comprising carbamate compound” (SK BIOPHARMACEUTICALS CO., LTD., priority 2021, dated 2025)

Assay: Visual wetting of cenobamate API on wetting agent solution
Format: physicochemical
Settings: in the presence of poloxamer 188; time for cenobamate to fall below the surface
Procedure: Poloxamer 188 was evaluated at different concentrations for sedimentation volume, dispensability and wettability of cenobamate containing dispersion in a neat citrate or phosphate buffer at pH 3 to 7. Approximately one hundred milligrams (100 mg) of cenobamate was dispersed in 10 mL of the poloxamer liquid at the concentration of 0.10, 0.50, 1.00, and 1.50 mg/mL in phosphate buffer pH 4.2 and the dispersions were evaluated for sedimentation volume, re-dispersibility, and wettability. Additionally, separate samples containing poloxamer 188 at the concertation of 0.1 mg/ml were also prepared in citrate buffer at different levels of pH (pH 3.5, 4.2 and 5.2), and evaluated in the same manner.
The volume of the sedimentation layer is an indicator to the amount of spacing between the particles in the sediment layer. Physical observations indicated these dispersions settled rapidly but formed a loosely packed layer which was very easily re-dispersed after inversion and/or shaking (FIGS. 1 and 2).
The following intended effects that were observed are immediate wetting of most of the material after adding cenobamate to the poloxamer solution, rapid and loose initial sedimentation within first 30 minutes to 1 hour as measured by ratio of sediment volume to total volume, no caking and efficient re-dispersion, rapidly dispersing material after shaking the settled sample for 10 seconds.

## NC(=O)O[C@@H](Cn1ncnn1)c1ccccc1Cl [cenobamate, carbamic acid (R)-1-(2-chlorophenyl)-2-tetrazol-2-yl-ethyl ester]
  Wetting of cenobamate: good wetting
